Experimental data from paper PMC5501398 (PLoS ONE, 2017).

Target: T1, VcIIPK (Vibrio cholerae, UniProt Q9KQJ0)
T1 construct: gene VC_2008
Experiment: biochemical

T1 sequence (Q9KQJ0 1-481 limits assumed): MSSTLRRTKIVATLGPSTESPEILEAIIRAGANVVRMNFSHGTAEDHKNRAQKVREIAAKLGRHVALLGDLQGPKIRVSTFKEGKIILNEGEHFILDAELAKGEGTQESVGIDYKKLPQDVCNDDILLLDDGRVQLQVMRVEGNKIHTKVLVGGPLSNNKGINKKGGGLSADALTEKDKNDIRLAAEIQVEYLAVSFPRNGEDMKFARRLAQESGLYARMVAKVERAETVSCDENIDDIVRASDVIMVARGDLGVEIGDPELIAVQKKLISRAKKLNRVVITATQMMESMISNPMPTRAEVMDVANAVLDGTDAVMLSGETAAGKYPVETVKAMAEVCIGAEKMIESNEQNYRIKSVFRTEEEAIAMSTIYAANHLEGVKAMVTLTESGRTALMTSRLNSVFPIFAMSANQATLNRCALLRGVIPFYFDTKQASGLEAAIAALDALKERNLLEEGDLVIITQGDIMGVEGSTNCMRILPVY

For `O=C(O)C(=O)O` [oxalate], the Ki was 71 ± 6 µM.
